# Results as given in US20170239212A1, “[…] AND USE THEREOF AS ANTIVIRAL AGENTS” (priority 2014, published 2017).
# How the values were obtained:
# [1] = tested on: HIV long terminal repeat (LTR) promoter; test: HOS LTR stimulation assay (luciferase reporter); assay type: cell-based; conditions: HOS cells; for Max signal (% of control): LTR-luciferase signal; for EC50: LTR-luciferase, incubated 24, 48 and 72 hours (time of the listed values not stated), read-out: EC50; for Conc (uM) at Max: concentration at maximal LTR-luciferase signal
# Experimental: In the assay, non T cell derived human osteosarcoma (HOS) cells are transfected with a luciferase reporter under control of an HIV long terminal repeat (LTR) promoter. Compounds that stimulate the HIV LTR promoter will produce luciferase in a dose dependent manner.
# (§1) Specifically, EC50 and CC50 values were determined in parallel using 10 concentrations of compound from 3 fold serial dilutions starting a 5 uM as the highest concentration. Cells and media were added to compounds with a final concentration of DMSO of 1% and incubated at 37° C., 5% CO2 for 24, 48 and 72 hours. EC50 was measured by induced luciferase activity detected by the use of the Steady-Glo® Luciferase reagent (PROMEGA) with an EnVision (Perkin-Elmer) plate reader. CC50 was determined by the dose dependent knock down of cellular ATP detected by the use of CellTiter-Glo® Luminescent Cell Viability reagent (PROMEGA) with an EnVision (Perkin-Elmer) plate reader.
# The error bars represent the average and the standard error of the mean of at least three independent experiments.
# [2] = molecular target: HIV long terminal repeat (LTR) promoter; test: in vitro; assay type: cell-based; conditions: Jurkat cells; for EC50: LTR-luciferase, incubated 24, 48 and 72 hours (time of the listed values not stated)
# Experimental: as §1, with “The compounds were also tested in the T cell derived Jurkat cell line transfected with a luciferase reporter under control of an HIV long terminal repeat (LTR) promoter. Specifically,” for “Specifically,”
# [3] = tested on: Jurkat cell line; test: in vitro; assay type: cell-based; conditions: Jurkat cells, knock down of cellular ATP
# Experimental: as §1, with “The compounds were also tested in the T cell derived Jurkat cell line transfected with a luciferase reporter under control of an HIV long terminal repeat (LTR) promoter. Specifically,” for “Specifically,”
# [4] = tested on: human osteosarcoma (HOS) cells; test: HOS cell viability (CellTiter-Glo, cellular ATP); assay type: cell-based; design: unit not given here; conditions: knock down of cellular ATP
# Experimental: as §1
# [5] = molecular target: mouse recombinant isozyme PKCα (Mus musculus, UniProt P20444); test: [3H]PDBu binding assay (polyethylene glycol precipitation); conditions: calcium and phosphatidylserine present, 2 nM [3H]PDBu, read-out: Ki (inhibitory dissociation constant, displacement of [3H]PDBu)
# Experimental: [^3H]PDBu Binding Assay. The inhibitory dissociation constant (Ki) of each bryologue ligand was determined by the ability of the ligand to displace bound [20-^3H]phorbol 12,13-dibutyrate (PDBu) from mouse recombinant isozyme PKCα in the presence of calcium and phosphatidylserine, using a polyethylene glycol precipitation assay developed in our laboratory as described elsewhere. Briefly, the assay mixture (250 μL) contained 50 mM Tris-HCl (pH 7.4 at room temperature), 100 μg/mL phosphatidylserine, 0.1 mM Ca^2+, 4 mg/mL bovine immunoglobulin G and 0.003% Tx-100, 2 nM [^3H]PDBu and various concentrations of the competing ligand. […] The radioactivity was determined by scintillation counting, using Cytoscint (ICN, Costa Mesa, Calif.). Specific binding was calculated as the difference between total and nonspecific PDBu binding. The Inhibitory dissociation constants (Ki) were calculated using the method previously described by Blumberg and Lewin.
# The inhibitory dissociation constant (Ki) of MERLE 28 was determined by the ability of the ligand to displace bound [20-^3H]phorbol 12,13-dibutyrate (PDBu) from mouse recombinant isozyme PKCα in the presence of calcium and phosphatidylserine, using a polyethylene glycol precipitation assay previously described by Blumberg and Lewin. […] The radioactivity was determined by scintillation counting, using Cytoscint (ICN, Costa Mesa, Calif.). […]
# [6] = in vitro; assay type: cell-based; conditions: human; Jurkat cells, knock down of cellular ATP
# Experimental: as §1, with “The compounds were also tested in the T cell derived Jurkat cell line transfected with a luciferase reporter under control of an HIV long terminal repeat (LTR) promoter. Specifically,” for “Specifically,”
Structure (SMILES),Max signal (% of control) [1],EC50 [1] [nM],Conc (uM) at Max [1] [µM],EC50 [2] [nM],Selectivity (CC50:EC50) ([2]; ratio of the CC50 to the EC50),CC50 [3] [nM],CCEC50 [4],Ki [5] [nM],EC50 ([1]; Human immunodeficiency virus 1) [nM],EC50 ([2]; Human immunodeficiency virus 1) [nM],"selectivity ratio ([2]; human, ratio of the CC50 to the EC50)",CC50 [6] [nM]
COC(=O)/C=C1/C[C@H]2C[C@]3(O)O[C@H](C[C@@H](O)CC(=O)O[C@@H]([C@@H](C)O)C[C@@H]4C/C(=C\C(=O)OC)[C@H](OC(C)=O)[C@@](O)(O4)C(C)(C)/C=C/[C@@H](C1)O2)C[C@H](OC(C)=O)C3(C)C [Bryostatin 7],250 % of control,6,0.07,1,4.6,4.6,6.24,–,–,–,–,–
C=C1C[C@H]2C[C@H]3C[C@@H](OC(C)=O)C[C@@H](C[C@@H](O)CC(=O)O[C@@H]([C@@H](C)O)C[C@@H]4C/C(=C\C(=O)OC)[C@H](OC(=O)CCCCCCC)[C@@](O)(O4)C(C)(C)/C=C/[C@@H](C1)O2)O3 [MERLE 27],–,–,–,–,–,–,–,3 ± 0.06,–,–,–,–
CC(=O)O[C@@]12C[C@@H](C)[C@@]3(O)[C@@H](C=C(CO)C[C@]4(O)C(=O)C(C)=C[C@@H]34)[C@@H]1C2(C)C [Prostratin],274 % of control,–,27.78,–,–,–,>50,–,1080,130,2.8,370
